Measured values: patent US12702149B2, “Resistant starch from natural sources and their preparation” (Arjuna Natural Private Limited, priority 2019, dated 2026)

System: carrageenan induced paw oedema
Assay: Anti-inflammatory study, carrageenan induced paw oedema model
Format: in vivo, Wistar rats
Conditions: oral, fibres 50 mg/Kg, Diclofenac 10 mg/Kg
Method: Anti-inflammatory study of turmeric dietary fibre was conducted in Wistar rats. Rats were divided into 5 groups and orally administered with study samples. • Group 1: consisted of control animals and were fed with vehicle (1% tween 80) • Group 2: animals which were given Diclofenac standard (10 mg Diclofenac/Kg body weight) • Group 3: Animals were given turmeric dietary fibre having 80% total dietary fibre (50 mg/Kg) • Group 4: Animals were given soluble dietary fibre from Guar beans (50 mg/Kg) • Group 5: Animals were given modified starch from tapioca (50 mg/Kg) Then after 30 mins, the treated rats were challenged with carrageenan (0.1 ml, 1% carrageenan suspension in 0.9% NaCl solution) by injecting to the animals in sub plantar region of the hind paw. Carrageenan is a chemical known to induce inflammation in rats. The paw volume was determined for all the animals at different time intervals (base line, 3 hr, 6 Hr) after carrageenan injection using digital plethysmometer and the percentage inhibition of inflammation was calculated using following formula: Percentage inhibition=(1−D/C)×100 • D-Represents the difference in paw volume from baseline in test/standard group. • C-Represents the difference in paw volume from baseline in the control group. A higher value of percentage inhibition indicated less paw volume in the animals as compared to control animals and more anti-inflammatory activity.

O=C(O)Cc1ccccc1Nc1c(Cl)cccc1Cl [Diclofenac]
Average percentage inhibition of inflammation (average of 3 Hr and 6 Hr): 39%
Percentage inhibition of inflammation 3 Hr (paw volume 3 hr after carrageenan): 46%
Percentage inhibition of inflammation 6 Hr (paw volume 6 hr after carrageenan): 32%
